Experimental data published in patent US20130035358A1, “Bis Aromatic Compounds for Use as LTC4 Synthase Inhibitors” (priority 2010, published 2013).
In brackets after ≈: the same amount, converted by molar mass. Where two headings read alike, the source gives them in different places.

Key:
[1] = target: T1, LTC4 synthase (Homo sapiens, UniProt Q16873); test: Test 2: LTC4 synthase IC50 procedure, ten concentrations, LTC4 HTRF kit; format: biochemical; details: Table 2; cells marked (Test 2)
T1 sequence (Q16873 1-150): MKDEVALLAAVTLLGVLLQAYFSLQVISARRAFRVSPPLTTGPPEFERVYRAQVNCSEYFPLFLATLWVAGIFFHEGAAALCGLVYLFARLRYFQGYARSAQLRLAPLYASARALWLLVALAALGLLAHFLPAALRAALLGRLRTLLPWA
Procedure: For certain compounds, in order to obtain IC50-values for the compounds, following procedure was used: • 1. A volume (24 μL) of 0.25 μg/mL LTC4 synthase in 75 mM tris (pH ˜8.5), 0.5 mM MgCl2 and 3 mM GSH was preincubated for 10 min with 0.5 μL of compound of interest in DMSO at ten different concentrations, typically in the range 10^−9,5-10^−5M as well as with DMSO only. The buffer is used as background. Runs are performed in duplicates. • 2. The enzymatic reaction is initiated by addition of 0.5 μL LTA4 in diglyme (final assay concentration 8 μM). • 3. The reaction is stopped after 1 min by addition of double the reaction volume of a stop solution (MeOH:H2O:acetic acid 70:30:1). • 4. After 15 fold dilution in PBS, LTC4 formation is detected with LTC4 HTRF kit (Cisbio, cat. No 64LC4PEC) and a fluorescence reader. Typically 10 μL of sample is mixed with 5 μL of each of the HTRF reagents d2 and k and analyzed as described in the kit manual.
The detected product concentration, with background subtracted, is plotted versus compound concentration and IC50 is determined as 50% of maximum inhibition.
(§1) IC50 values for title compounds of the examples are depicted in the tables hereinafter (where, they are the values obtained using Test 1, unless otherwise indicated).

[2] = Thermodynamic aqueous solubility in USP phosphate buffer (Example 25); format: physicochemical; details: USP phosphate buffer pH 7.4, 24 h at 20° C., LC-MS/MS, read-out: Thermodynamic aq solubility
Procedure: The method described here was developed to accurately determine the aqueous solubility of compounds of the invention in buffer solution at a given pH.
Solid material (1 mg) of test compound is added to a glass vial followed by 1 ml of buffer solution (pH 7.4 if another pH not is stated). The solution is left on an orbital shaker for 24 h at 20° C. After incubation, the remaining solid material is separated from solution and the solubility is quantified using LC-MS/MS.
Prepare 0.2 M monobasic potassium phosphate solution by dissolving 27.22 g of KH2PO4 (MW=136.09 g/mol) in water, dilute with water to 1000 mL.
Add 250 mL of the monobasic potassium phosphate solution in a 1000 mL volumetric flask together with 195.5 mL 0.2M NaOH (aq). Add water to 1000 mL. Check pH.
Compounds of the invention/examples to be tested were provided as solid material, weighed into glass vials (2 mL). Each vial contains approximately 1 mg solid compound, two vials/compound are prepared, i.e. duplicate samples of each compound. If a freshly prepared 10 mM DMSO stock solution was available, this solution was used for MS optimization and preparation of standards. If a DMSO-stock solution was not available, a 10 mM solution from solid material 1 mg was prepared.
• Test compounds are employed as solid material. Since duplicate samples are prepared for each compound, each test compound arrives in two vials (1+1 mg). Samples are denoted as sample 1 and 2. • Note amount of substance in each vial. Add USP phosphate buffer pH 7.4 (1 mL) to each sample vial and seal vials using screw caps. Determine whether the solutions are saturated or if compounds are dissolved, note appearance and time. Start incubation; the samples are incubated on an orbital shaker (450 rpm) at 20° C. for 24 hours.
• Take out the 1 mM DMSO-stock solutions of compounds that are to be tested from freezer. If no 1 mM solutions are available, use master solutions with concentration of 10 mM. Allow the solutions to thaw at rt. • Collect two 96-deep well plates, glass inserts, sealing film, and an 8-channel expandable pipette with tall tips. • Abort shaking after 24 hour. • Note if samples are saturated or if compounds have dissolved. • Transfer 720 μL of sample slurry from each sample vial into glass inserts in a 96-deep well plate using an 8-channel expandable pipette. Samples 1 and 2 are transferred to separate plates. Thus, all samples 1 are placed in one plate and all samples 2 in the second plate. • Seal the plates using sealing film. • Centrifuge the plates at 3000 rpm for 15 min at rt. Set acceleration to 9 and brake to 7 (9=fastest acc/brake, 0=slowest acc/brake). • Transfer the supernatants to new glass inserts using an 8-channel pipette, centrifuge samples a second time. • Repeat the procedure above, i.e. centrifuge samples a third time. • After the third centrifugation, transfer supernatant to glass vials, seal vials with screw caps. Control that the solutions are clear and that no particles are present in sample. If solid material is observed, an additional centrifugation step is performed. • Standards are prepared from DMSO-stock solutions (1 or 10 mM). For each compound, transfer […] 1 mM solution to a glass vial, add DMSO (90 μL) to reach a final concentration of 100 μM, seal with screw cap and mix solution quickly on a vortex mixer. Further dilute the 100 μM solution with a 1:1 mixture of acetonitrile and USP phosphate buffer (pH 7.4) to standards with concentration 1000, 500, 100, 25, 2, and 1 nM. Standards are prepared in test tubes.
• Place standards in autosampler. • Try out the dilution of solubility samples so that their response will be within the standard curve. Dilute solubility sample one (or two) with the 1:1 mixture of acetonitrile:buffer. […]

[3] = target: T1, LTC4 synthase; test: Test 1 in vitro assay: LTC4 synthase converts LTA4 to LTC4, HTRF detection; format: biochemical; parameters: made in house; host or cells: Pichia pastoris; details: Table 2; Test 1 (unless otherwise indicated)
Procedure: In the assay, LTC4 synthase catalyses the reaction where the substrate LTA4 is converted to LTC4. Recombinant human LTC4 synthase is expressed in Piccia pastoralis and the purified enzyme is dissolved in 25 mM tris-buffer pH 7.8 supplemented with 0.1 mM glutathione (GSH) and stored at −80° C. The assay is performed in phosphate buffered saline (PBS) pH 7.4 and 5 mM GSH in 384-well plates.
The following is added chronologically to each well:
1. 48 μL LTC4 synthase in PBS with 5 mM GSH. The total protein concentration in this solution is 0.5 μg/mL. 2. 1 μL inhibitor in DMSO (final concentration 10 μM). 3. Incubation of the plate at room temperature for 10 min. 4. 1 μL LTA4 (final concentration 2.5 μM). 5. Incubation of the plate at room temperature for 5 min. 6. 10 μL of the incubation mixture is analysed using homogenous time resolved fluorescent (HTRF) detection.
as §1

[4] = aqueous buffer, thermodynamic from solid

SMILES | IC50 [1] [nM] | solubility thermodynamic at 24 h [2, 4] [µM] | IC50 [3] [nM] | solubility thermodynamic at 24 h [2] [µM]
CN(c1ccc(Cl)cc1)c1ccc(C(=O)c2ccc(C(=O)C3CC4CCC3C4)c(C(=O)O)c2)nc1 (centres unmarked) [Example 15, 2-(Bicyclo[2.2.1]heptane-2-carbonyl)-5-(5-((4-chlorophenyl)(methyl)amino)-picolinoyl)benzoic acid] |  | 1980 (≈ 969 µg/mL) | 94 | 
CN(c1ccc(Cl)cc1)c1ccc(C(=O)c2ccc(C(=O)C3(c4ccccc4)CCCCC3)c(C(=O)O)c2)nc1 [Example 9, 5-(5-((4-Chlorophenyl)(methyl)amino)picolinoyl)-2-(1-phenylcyclohexanecarbonyl)benzoic acid] |  |  | 32 | 7 (≈ 3.87 µg/mL)

More lines, now with the values ahead:

IC50 [1] [nM] | solubility thermodynamic at 24 h [2, 4] [µM] | IC50 [3] [nM] | solubility thermodynamic at 24 h [2] [µM] | SMILES
424 |  |  |  | O=C(c1ccc(C(=O)C2CC2)c(C(=O)O)c1)c1ccc(N(CC2CC2)c2ccc(Cl)cc2)cn1 [Example 24, 5-(5-((4-Chlorophenyl)(cyclopropylmethyl)amino)picolinoyl)-2-(cyclopropanecarbonyl)benzoic acid]
129 |  |  |  | CCC(=O)c1ccc(C(=O)c2ccc(N(CC3CC3)c3ccc(Cl)cc3)cn2)cc1C(=O)O [Example 23, 5-(5-((4-Chlorophenyl)(cyclopropylmethyl)amino)picolinoyl)-2-propionylbenzoic acid]
307 | 1860 (≈ 835 µg/mL) |  |  | CC(=O)c1ccc(C(=O)c2ccc(N(CC3CC3)c3ccc(Cl)cc3)cn2)cc1C(=O)O [Example 22, 2-Acetyl-5-(5-((4-chlorophenyl)(cyclopropylmethyl)amino)picolinoyl)benzoic acid]
